From US20230265151A1, “GIP/GLP1 CO-AGONIST COMPOUNDS” (priority 2020, published 2023)
Like-named read-outs stand apart in the source and are kept apart here. *1 amine or outer side, *2 acyl side, *3 side chain or, on linkers, in order; H or OH if unused. Where a SMILES comes first, the peptide text is derived from it. Side-chain parts run from the residue outwards. [ ]: non-standard residue; d: D form. The star is where a group is joined. αMePhe(2-F) = C[C@](N)(Cc1ccccc1F)C(=O)O; γGlu = O=C(O)[C@H](CCC(=O)[*:2])N[*:1]; C14 diacid = O=C(O)CCCCCCCCCCCCC(=O)*; αMeY = C[C@](N)(Cc1ccc(O)cc1)C(=O)O; 4Pal = N[C@@H](Cc1ccncc1)C(=O)O; αMeL = CC(C)C[C@](C)(N)C(=O)O; Orn = NCCC[C@H](N)C(=O)O; AEEA = NCCOCCOCC(=O)O; Aib = CC(C)(N)C(=O)O

Tests used:
Assay type in all cases: cell-based
hGLP-1R = hGLP-1R (Homo sapiens, UniProt P43220); test: Functional cAMP formation (HTRF) in HEK-293 clonal cells expressing hGLP-1R, 0.1% bovine casein, without or with 1.0% human serum albumin; set-up: expressed in transfected cells; conditions: for EC50: geometric mean, read-out: hGLP-1R EC50, nM (SEM, n); for Emax: read-out: hGLP-1R Emax, % ± SEM
hGLP-1R, sequence (P43220 24-463): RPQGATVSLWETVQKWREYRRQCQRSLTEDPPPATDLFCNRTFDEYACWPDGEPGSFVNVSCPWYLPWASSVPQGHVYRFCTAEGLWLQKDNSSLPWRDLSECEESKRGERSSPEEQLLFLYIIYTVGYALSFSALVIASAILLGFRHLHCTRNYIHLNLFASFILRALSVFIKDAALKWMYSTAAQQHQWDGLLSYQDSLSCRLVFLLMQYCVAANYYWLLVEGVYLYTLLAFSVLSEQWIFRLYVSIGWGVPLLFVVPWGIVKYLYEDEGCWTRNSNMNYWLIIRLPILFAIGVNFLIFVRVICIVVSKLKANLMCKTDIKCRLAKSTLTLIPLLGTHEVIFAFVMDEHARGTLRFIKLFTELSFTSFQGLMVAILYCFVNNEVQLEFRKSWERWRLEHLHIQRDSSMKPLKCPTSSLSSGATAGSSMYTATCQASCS
In short: (§1)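 Cells were stimulated with peptide for 30 min at 37° C, then intracellular cAMP was measured by competitive HTRF (665/620 nm ratio) and converted to nM using a cAMP standard curve. Relative EC50 and Emax came from four-parameter logistic fits of percent maximal response against peptide concentration.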

hGCGR = molecular target: T1, hGCGR (Homo sapiens, UniProt P47871); test: Functional cAMP formation (HTRF) in HEK-293 clonal cells expressing hGCGR, 0.1% bovine casein, without or with 1.0% human serum albumin; conditions: geometric mean, read-out: hGCGR EC50, nM (SEM, n)
T1 construct: expressed in transfected cells
T1 sequence (P47871 26-477): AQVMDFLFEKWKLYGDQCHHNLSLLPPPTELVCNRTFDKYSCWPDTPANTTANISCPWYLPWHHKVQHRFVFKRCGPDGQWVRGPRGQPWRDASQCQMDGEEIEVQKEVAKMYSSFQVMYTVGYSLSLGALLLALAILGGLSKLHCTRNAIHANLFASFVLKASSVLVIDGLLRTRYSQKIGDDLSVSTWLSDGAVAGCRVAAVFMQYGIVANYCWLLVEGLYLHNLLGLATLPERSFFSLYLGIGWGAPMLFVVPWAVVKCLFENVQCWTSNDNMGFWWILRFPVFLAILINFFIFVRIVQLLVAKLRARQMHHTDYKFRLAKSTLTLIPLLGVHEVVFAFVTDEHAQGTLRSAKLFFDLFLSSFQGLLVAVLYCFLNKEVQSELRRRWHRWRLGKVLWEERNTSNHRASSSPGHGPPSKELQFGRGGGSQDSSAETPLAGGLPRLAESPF
In short: as §1

hGIPR = molecular target: T2, hGIPR (Homo sapiens, UniProt P48546); test: Functional cAMP formation (HTRF) in HEK-293 clonal cells expressing hGIPR, 0.1% bovine casein, without or with 1.0% human serum albumin; conditions: for EC50: geometric mean, read-out: hGIPR EC50, nM (SEM, n); for Emax: read-out: hGIPR Emax, % ± SEM
T2 construct: expressed in transfected cells
T2 sequence (P48546 22-466): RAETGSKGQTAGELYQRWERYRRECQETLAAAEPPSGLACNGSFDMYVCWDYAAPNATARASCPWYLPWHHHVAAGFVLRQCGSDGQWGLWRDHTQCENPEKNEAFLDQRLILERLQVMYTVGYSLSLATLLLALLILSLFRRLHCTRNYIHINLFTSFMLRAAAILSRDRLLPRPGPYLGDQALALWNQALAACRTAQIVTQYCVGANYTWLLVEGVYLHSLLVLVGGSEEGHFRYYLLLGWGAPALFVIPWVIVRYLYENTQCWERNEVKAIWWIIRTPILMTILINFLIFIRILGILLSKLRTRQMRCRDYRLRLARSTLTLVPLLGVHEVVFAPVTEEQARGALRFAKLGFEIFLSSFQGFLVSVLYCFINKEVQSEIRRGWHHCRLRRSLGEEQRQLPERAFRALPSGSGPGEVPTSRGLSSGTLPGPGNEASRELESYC
In short: as §1

[1] = 0.1% bovine casein and 1.0% human serum albumin, 37° C.
[2] = HEK293, 0.1% bovine casein and 1.0% human serum albumin, 37° C., percent of maximal response to GLP-1(7-36)NH2
[3] = HEK293, percent of maximal response to GLP-1(7-36)NH2, 37° C., 0.1% bovine casein, arithmetic mean
[4] = cAMP, incubated at 37° C., 0.1% bovine casein (no human serum albumin)
[5] = HEK293, 0.1% bovine casein and 1.0% human serum albumin, 37° C., percent of maximal response to GIP(1-42)NH2
[6] = HEK293, percent of maximal response to GIP(1-42)NH2, 37° C., 0.1% bovine casein, arithmetic mean

CC[C@H](C)[C@H](NC(=O)[C@H](CC(C)C)NC(=O)[C@](C)(Cc1ccc(O)cc1)NC(=O)[C@@H](CCC(=O)O)NC(=O)[C@@H](NC(=O)[C@H](Cc1ccccc1)NC(=O)[C@H](CCC(=O)O)NC(=O)C(C)(C)NC(=O)[C@H](CCC(N)=O)NC(=O)[C@H](C)NC(=O)[C@H](CCCCNC(=O)COCCOCCNC(=O)CC[C@H](NC(=O)CCCc1ccc(C(C)(C)C)cc1)C(=O)O)NC(=O)[C@H](CCCN)NC(=O)[C@H](CC(=O)O)NC(=O)[C@H](CC(C)C)NC(=O)[C@](C)(CC(C)C)NC(=O)[C@@H](NC(=O)[C@H](CO)NC(=O)[C@H](Cc1ccncc1)NC(=O)[C@H](CC(=O)O)NC(=O)[C@H](CO)NC(=O)[C@@H](NC(=O)[C@](C)(Cc1ccccc1F)NC(=O)[C@@H](NC(=O)CNC(=O)[C@H](CCC(=O)O)NC(=O)C(C)(C)NC(=O)[C@@H](N)Cc1ccc(O)cc1)[C@@H](C)O)[C@@H](C)O)[C@@H](C)CC)[C@@H](C)CC)C(=O)N[C@@H](CCC(=O)O)C(=O)NCC(=O)NCC(=O)N1CCC[C@H]1C(=O)N[C@@H](CO)C(=O)N[C@@H](CO)C(=O)NCC(=O)N[C@@H](C)C(=O)N1CCC[C@H]1C(=O)N1CCC[C@H]1C(=O)N1CCC[C@H]1C(=O)N[C@@H](CO)C(=O)N[C@@H](CCCCNC(=O)COCCOCCNC(=O)CC[C@H](NC(=O)CCCc1ccc(C(C)(C)C)cc1)C(=O)O)C(N)=O [Example 209]
EC50 (hGLP-1R; [1]): 1.16 nM
Emax (hGLP-1R; [2]): 109%
Emax (hGLP-1R; [3]): 100%
EC50 (hGLP-1R; [4]): 0.235 nM
EC50 (hGCGR; [1]): > 9950 nM
EC50 (hGCGR; [4]): > 9950 nM
EC50 (hGIPR; [1]): 0.173 nM
Emax (hGIPR; [5]): 90.8%
EC50 (hGIPR; [4]): 0.0133 nM

CCCCCCCCCCCC(=O)N[C@@H](CCC(=O)NCCOCCOCC(=O)NCCOCCOCC(=O)NCCCC[C@H](NC(=O)[C@H](CCCN)NC(=O)[C@H](CC(=O)O)NC(=O)[C@H](CC(C)C)NC(=O)[C@](C)(CC(C)C)NC(=O)[C@@H](NC(=O)[C@H](CO)NC(=O)[C@H](Cc1ccncc1)NC(=O)[C@H](CC(=O)O)NC(=O)[C@H](CO)NC(=O)[C@@H](NC(=O)[C@](C)(Cc1ccccc1F)NC(=O)[C@@H](NC(=O)CNC(=O)[C@H](CCC(=O)O)NC(=O)C(C)(C)NC(=O)[C@@H](N)Cc1ccc(O)cc1)[C@@H](C)O)[C@@H](C)O)[C@@H](C)CC)C(=O)N[C@@H](C)C(=O)N[C@@H](CCC(N)=O)C(=O)NC(C)(C)C(=O)N[C@@H](CCC(=O)O)C(=O)N[C@@H](Cc1ccccc1)C(=O)N[C@H](C(=O)N[C@H](CCC(=O)O)C(=O)N[C@@](C)(Cc1ccc(O)cc1)C(=O)N[C@@H](CC(C)C)C(=O)N[C@H](C(=O)N[C@@H](CCC(=O)O)C(=O)NCC(=O)N[C@@H](CCCCNC(=O)COCCOCCNC(=O)COCCOCCNC(=O)CC[C@H](NC(=O)CCCCCCCCCCC)C(=O)O)C(=O)N1CCC[C@H]1C(=O)N[C@@H](CO)C(=O)N[C@@H](CO)C(=O)NCC(=O)N[C@@H](C)C(=O)N1CCC[C@H]1C(=O)N1CCC[C@H]1C(=O)N1CCC[C@H]1C(=O)N[C@@H](CO)C(N)=O)[C@@H](C)CC)[C@@H](C)CC)C(=O)O [Example 140]
EC50 (hGLP-1R; [4]): 0.131 nM
EC50 (hGCGR; [4]): > 9950 nM
Emax (hGIPR; [6]): 98.5 ± 1.71%
EC50 (hGIPR; [4]): 0.0121 nM

CC[C@H](C)[C@H](NC(=O)[C@H](CC(C)C)NC(=O)[C@](C)(Cc1ccc(O)cc1)NC(=O)[C@@H](CCC(=O)O)NC(=O)[C@@H](NC(=O)[C@H](Cc1ccccc1)NC(=O)[C@H](CCC(=O)O)NC(=O)C(C)(C)NC(=O)[C@H](CCC(N)=O)NC(=O)[C@H](C)NC(=O)[C@H](CCCCNC(=O)COCCOCCNC(=O)COCCOCCNC(=O)CCCCCCCCCCCCC(=O)O)NC(=O)[C@H](CCCN)NC(=O)[C@H](CC(=O)O)NC(=O)[C@H](CC(C)C)NC(=O)[C@](C)(CC(C)C)NC(=O)[C@@H](NC(=O)[C@H](CO)NC(=O)[C@H](Cc1ccncc1)NC(=O)[C@H](CC(=O)O)NC(=O)[C@H](CO)NC(=O)[C@@H](NC(=O)[C@](C)(Cc1ccccc1F)NC(=O)[C@@H](NC(=O)CNC(=O)[C@H](CCC(=O)O)NC(=O)C(C)(C)NC(=O)[C@@H](N)Cc1ccc(O)cc1)[C@@H](C)O)[C@@H](C)O)[C@@H](C)CC)[C@@H](C)CC)C(=O)N[C@@H](CCC(=O)O)C(=O)NCC(=O)NCC(=O)N1CCC[C@H]1C(=O)N[C@@H](CO)C(=O)N[C@@H](CO)C(=O)NCC(=O)N[C@@H](C)C(=O)N1CCC[C@H]1C(=O)N1CCC[C@H]1C(=O)N1CCC[C@H]1C(=O)N[C@@H](CO)C(=O)N[C@@H](CCCCNC(=O)COCCOCCNC(=O)COCCOCCNC(=O)CCCCCCCCCCCCC(=O)O)C(N)=O [Example 221]
EC50 (hGLP-1R; [1]): 17.9 nM
Emax (hGLP-1R; [2]): 92.3%
Emax (hGLP-1R; [3]): 83%
EC50 (hGCGR; [1]): > 9950 nM
EC50 (hGCGR; [4]): > 9950 nM
Emax (hGIPR; [5]): 67.4%
Emax (hGIPR; [6]): 81.8%
EC50 (hGIPR; [4]): 0.0279 nM

CC[C@H](C)[C@H](NC(=O)[C@H](CC(C)C)NC(=O)[C@](C)(Cc1ccc(O)cc1)NC(=O)[C@@H](CCC(=O)O)NC(=O)[C@@H](NC(=O)[C@H](Cc1ccccc1)NC(=O)[C@H](CCC(=O)O)NC(=O)C(C)(C)NC(=O)[C@H](CCC(N)=O)NC(=O)[C@H](C)NC(=O)[C@H](CCCCNC(=O)COCCOCCNC(=O)COCCOCCNC(=O)CC[C@H](NC(=O)CCCCCCCCCCCCC(=O)O)C(=O)O)NC(=O)[C@H](CCCN)NC(=O)[C@H](CC(=O)O)NC(=O)[C@H](CC(C)C)NC(=O)[C@](C)(CC(C)C)NC(=O)[C@@H](NC(=O)[C@H](CO)NC(=O)[C@H](Cc1ccncc1)NC(=O)[C@H](CC(=O)O)NC(=O)[C@H](CO)NC(=O)[C@@H](NC(=O)[C@](C)(Cc1ccccc1F)NC(=O)[C@@H](NC(=O)CNC(=O)[C@H](CCC(=O)O)NC(=O)C(C)(C)NC(=O)[C@@H](N)Cc1ccc(O)cc1)[C@@H](C)O)[C@@H](C)O)[C@@H](C)CC)[C@@H](C)CC)C(=O)N[C@@H](CCC(=O)O)C(=O)NCC(=O)NCC(=O)N[C@@H](CCCCNC(=O)COCCOCCNC(=O)COCCOCCNC(=O)CC[C@H](NC(=O)CCCCCCCCCCCCC(=O)O)C(=O)O)C(=O)N[C@@H](CO)C(=O)N[C@@H](CO)C(=O)NCC(=O)N[C@@H](CCCN)C(=O)N1CCC[C@H]1C(=O)N1CCC[C@H]1C(=O)N1CCC[C@H]1C(=O)N[C@@H](CCCN)C(N)=O [Example 155] (H-Y[Aib]EGT[αMePhe(2-F)]TSD[4Pal]SI[αMeL]LD[Orn]K([AEEA-AEEA-γGlu-C14 diacid])AQ[Aib]EFI[dE][αMeY]LIEGGK([AEEA-AEEA-γGlu-C14 diacid])SSG[Orn]PPP[Orn]-NH2; N-terminus assumed)
EC50 (hGLP-1R; [1]): 34.6 nM
Emax (hGLP-1R; [3]): 99 ± 5.16%
EC50 (hGLP-1R; [4]): 0.912 nM
EC50 (hGCGR; [1]): > 9950 nM
EC50 (hGCGR; [4]): > 9950 nM
EC50 (hGIPR; [1]): 1.25 nM
Emax (hGIPR; [5]): 96.5 ± 1.04%
Emax (hGIPR; [6]): 96.6 ± 7.55%
EC50 (hGIPR; [4]): 0.0309 nM
